According to publication PMC9516332 (Frontiers in Oncology, 2022):
Like-named read-outs stand apart in the source and are kept apart here.

What was measured:
Assay in all cases: Kinase panel profiling at 1 µmol/L (MSA or IMAP), percentage inhibition
Type in all cases: biochemical
[1] = molecular target: panel of 255 wild-type kinases (Homo sapiens, UniProt P24723); conditions: read-out: %-inhibition at 1 µmol/L, PKCη
[2] = molecular target: panel of 255 wild-type kinases (Homo sapiens, UniProt P06493); conditions: read-out: %-inhibition CDC2/CycB1
[3] = molecular target: panel of 255 wild-type kinases (Homo sapiens, UniProt Q9UBS0); conditions: read-out: %-inhibition, p70S6Kβ
[4] = molecular target: T1, panel of 255 wild-type kinases (Homo sapiens, UniProt Q12866); conditions: read-out: %-inhibition, MER
T1 sequence (Q12866 21-999): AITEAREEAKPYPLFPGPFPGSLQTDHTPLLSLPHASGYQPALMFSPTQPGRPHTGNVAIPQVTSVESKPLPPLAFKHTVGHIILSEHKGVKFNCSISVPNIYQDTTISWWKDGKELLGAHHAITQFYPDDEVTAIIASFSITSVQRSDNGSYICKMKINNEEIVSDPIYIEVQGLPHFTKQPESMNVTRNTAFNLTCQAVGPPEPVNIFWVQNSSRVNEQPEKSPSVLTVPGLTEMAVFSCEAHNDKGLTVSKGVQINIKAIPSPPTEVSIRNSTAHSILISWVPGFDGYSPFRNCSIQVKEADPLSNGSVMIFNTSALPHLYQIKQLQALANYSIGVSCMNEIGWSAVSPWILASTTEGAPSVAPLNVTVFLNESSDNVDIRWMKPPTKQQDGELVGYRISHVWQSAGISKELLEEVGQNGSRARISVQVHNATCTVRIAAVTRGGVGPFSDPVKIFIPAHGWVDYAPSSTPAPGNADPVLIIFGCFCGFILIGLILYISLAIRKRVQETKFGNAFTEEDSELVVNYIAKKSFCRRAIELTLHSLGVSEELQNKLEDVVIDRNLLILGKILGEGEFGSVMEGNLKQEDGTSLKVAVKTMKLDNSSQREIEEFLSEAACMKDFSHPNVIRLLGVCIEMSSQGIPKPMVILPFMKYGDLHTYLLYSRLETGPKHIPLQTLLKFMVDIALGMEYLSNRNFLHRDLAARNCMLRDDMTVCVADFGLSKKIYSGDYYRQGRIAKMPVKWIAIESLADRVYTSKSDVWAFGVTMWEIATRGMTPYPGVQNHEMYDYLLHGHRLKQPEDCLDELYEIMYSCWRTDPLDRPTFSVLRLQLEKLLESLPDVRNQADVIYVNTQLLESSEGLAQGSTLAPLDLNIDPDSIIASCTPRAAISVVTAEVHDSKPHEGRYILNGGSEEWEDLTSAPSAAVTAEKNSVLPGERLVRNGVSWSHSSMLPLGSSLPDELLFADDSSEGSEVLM

[5] = molecular target: T2, panel of 255 wild-type kinases (Homo sapiens, UniProt O00141); conditions: read-out: %-inhibition at 1 µmol/L, SGK
T2 sequence (O00141 1-431): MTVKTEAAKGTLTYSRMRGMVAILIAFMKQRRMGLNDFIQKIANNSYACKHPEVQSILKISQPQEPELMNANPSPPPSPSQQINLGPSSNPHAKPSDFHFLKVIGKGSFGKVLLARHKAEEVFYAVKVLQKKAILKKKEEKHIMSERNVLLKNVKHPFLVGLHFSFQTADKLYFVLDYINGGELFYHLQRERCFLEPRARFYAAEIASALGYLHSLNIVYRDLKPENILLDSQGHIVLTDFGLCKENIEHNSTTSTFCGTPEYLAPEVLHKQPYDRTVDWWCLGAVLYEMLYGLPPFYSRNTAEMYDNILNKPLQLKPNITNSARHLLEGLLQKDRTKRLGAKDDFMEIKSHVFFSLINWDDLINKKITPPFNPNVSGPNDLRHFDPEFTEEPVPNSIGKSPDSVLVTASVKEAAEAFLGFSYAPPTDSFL

[6] = molecular target: panel of 255 wild-type kinases (Homo sapiens, UniProt Q15349); conditions: read-out: %-inhibition at 1 µmol/L, RSK3
[7] = molecular target: T3, panel of 255 wild-type kinases (Homo sapiens, UniProt P29322); conditions: read-out: %-inhibition at 1 µmol/L, EPHA8
T3 sequence (P29322 28-1005): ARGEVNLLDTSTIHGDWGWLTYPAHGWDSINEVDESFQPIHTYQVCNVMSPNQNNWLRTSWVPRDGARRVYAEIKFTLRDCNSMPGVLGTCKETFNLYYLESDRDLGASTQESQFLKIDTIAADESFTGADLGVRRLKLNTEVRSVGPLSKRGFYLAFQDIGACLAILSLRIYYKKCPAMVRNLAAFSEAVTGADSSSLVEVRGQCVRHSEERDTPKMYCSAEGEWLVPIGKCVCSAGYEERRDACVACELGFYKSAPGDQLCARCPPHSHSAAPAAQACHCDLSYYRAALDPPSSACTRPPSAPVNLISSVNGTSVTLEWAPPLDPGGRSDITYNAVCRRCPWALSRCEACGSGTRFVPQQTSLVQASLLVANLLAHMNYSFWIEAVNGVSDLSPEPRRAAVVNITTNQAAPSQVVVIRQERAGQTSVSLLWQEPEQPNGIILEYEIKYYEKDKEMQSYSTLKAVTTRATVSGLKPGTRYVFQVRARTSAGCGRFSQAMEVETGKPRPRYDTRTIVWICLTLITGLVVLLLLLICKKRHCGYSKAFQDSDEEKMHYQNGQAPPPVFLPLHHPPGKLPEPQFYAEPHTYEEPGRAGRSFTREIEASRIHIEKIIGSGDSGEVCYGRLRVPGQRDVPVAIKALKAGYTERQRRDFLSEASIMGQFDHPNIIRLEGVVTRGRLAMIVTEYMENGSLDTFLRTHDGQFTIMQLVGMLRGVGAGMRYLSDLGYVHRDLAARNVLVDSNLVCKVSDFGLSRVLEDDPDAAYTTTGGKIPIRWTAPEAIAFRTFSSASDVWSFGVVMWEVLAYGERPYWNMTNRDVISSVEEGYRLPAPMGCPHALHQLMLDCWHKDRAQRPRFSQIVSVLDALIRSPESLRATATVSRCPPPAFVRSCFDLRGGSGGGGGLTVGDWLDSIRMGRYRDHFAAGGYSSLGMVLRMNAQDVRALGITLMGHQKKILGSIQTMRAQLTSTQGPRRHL

[8] = molecular target: panel of 255 wild-type kinases (Homo sapiens, UniProt Q15759); conditions: read-out: %-inhibition, p38β
[9] = kinase PKCη, 1 µmol/L single concentration
[10] = CDC2/CycB1 kinase assay, 1 µmol/L single concentration
[11] = p70S6Kβ, 1 µmol/L single concentration
[12] = MER, 1 µmol/L single concentration
[13] = kinase SGK, 1 µmol/L single concentration
[14] = kinase RSK3, 1 µmol/L single concentration
[15] = kinase EPHA8, 1 µmol/L single concentration
[16] = p38β, 1 µmol/L single concentration

inhibition at 1 µM [1, 9] [%] | inhibition at 1 µM [2, 10] [%] | inhibition at 1 µM [3, 11] [%] | inhibition at 1 µM [4, 12] [%] | inhibition at 1 µM [5, 13] [%] | inhibition at 1 µM [6, 14] [%] | inhibition at 1 µM [7, 15] [%] | inhibition at 1 µM [8, 16] [%] | Compound | inhibition at 1 µM [1] [%] | inhibition at 1 µM [2] [%] | inhibition at 1 µM [3] [%] | inhibition at 1 µM [4] [%] | inhibition at 1 µM [5] [%] | inhibition at 1 µM [6] [%] | inhibition at 1 µM [7] [%] | inhibition at 1 µM [8] [%]
0.743 | -0.937 | 2.47 | -1 | -3.47 | -0.46 | -7 | 0.677 | C[C@H](Nc1ncnc2nc[nH]c12)c1cc2cccc(Cl)c2c(=O)n1-c1ccccc1 [duvelisib] | – | – | – | – | – | – | – | –
– | – | – | – | – | – | – | – | CNC(=O)c1ccc(-c2cnc3ncc(Cc4ccc5ncccc5c4)n3n2)cc1F [capmatinib] | -8.53 | 2 | 12 | 13 | -0.731 | 5 | -14 | -2.57
1.58 | -7 | 4.22 | 6 | -1.16 | -10 | -9 | -0.0712 | O=C(Nc1cnn2ccc(N3CCC[C@@H]3c3cc(F)ccc3F)nc12)N1CC[C@H](O)C1 [larotrectinib] | – | – | – | – | – | – | – | –
6 | 2.36 | 1.09 | -2.19 | 5 | -5 | 2.68 | 0.0465 | Cn1cnc2c(F)c(Nc3ccc(Br)cc3F)c(C(=O)NOCCO)cc21 [binimetinib] | – | – | – | – | – | – | – | –
4.42 | -4 | 6.63 | 88 | 11 | 56 | 45 | -1.85 | COc1ccc(CN2C3CC2CN(c2ccc(-c4cc(OCC(C)(C)O)cn5ncc(C#N)c45)cn2)C3)cn1 [selpercatinib] | – | – | – | – | – | – | – | –
1.42 | -3.48 | 4.37 | -3.44 | -5.64 | -1.47 | -6.59 | 1 | Cc1nc(NC(=O)N2CCC[C@H]2C(N)=O)sc1-c1ccnc(C(C)(C)C(F)(F)F)c1 [alpelisib] | – | – | – | – | – | – | – | –
-5.44 | -7 | 3.57 | 12 | 0.299 | 2.84 | -14 | -3.42 | Cc1cc(Nc2ncnc3ccc(NC4=NC(C)(C)CO4)cc23)ccc1Oc1ccn2ncnc2c1 [tucatinib] | – | – | – | – | – | – | – | –
-3.21 | -11 | 8 | 11 | 1.83 | 4.41 | -12 | -1.71 | Cn1cnc2c(F)c(Nc3ccc(Br)cc3Cl)c(C(=O)NOCCO)cc21 [selumetinib] | – | – | – | – | – | – | – | –
11 | -6 | -0.889 | 19 | -6 | 27 | 59 | 8.44 | COc1cc2ncnc(Nc3ccc(F)c(Cl)c3)c2cc1NC(=O)/C=C/CN1CCCCC1 [dacomitinib] | – | – | – | – | – | – | – | –

Compound | inhibition at 1 µM [1, 9] [%] | inhibition at 1 µM [2, 10] [%] | inhibition at 1 µM [3, 11] [%] | inhibition at 1 µM [4, 12] [%] | inhibition at 1 µM [5, 13] [%] | inhibition at 1 µM [6, 14] [%] | inhibition at 1 µM [7, 15] [%] | inhibition at 1 µM [8, 16] [%] | inhibition at 1 µM [1] [%] | inhibition at 1 µM [2] [%] | inhibition at 1 µM [3] [%] | inhibition at 1 µM [4] [%] | inhibition at 1 µM [5] [%] | inhibition at 1 µM [6] [%] | inhibition at 1 µM [7] [%] | inhibition at 1 µM [8] [%]
COC(=O)N[C@@H](C)CNc1nccc(-c2cn(C(C)C)nc2-c2cc(Cl)cc(NS(C)(=O)=O)c2F)n1 [encorafenib] | 13 | 8 | 8 | 0.281 | 7 | -3.36 | 16 | 56 | – | – | – | – | – | – | – | –
CCN1CCN(c2ccc(Nc3cc(N(C)C(=O)Nc4c(Cl)c(OC)cc(OC)c4Cl)ncn3)cc2)CC1 [infigratinib] | 2 | -9 | 5.43 | 15 | -1.45 | -0.616 | -10 | -1.57 | – | – | – | – | – | – | – | –
FC(F)(F)c1ccc(CNc2ccc(Cc3c[nH]c4ncc(Cl)cc34)cn2)cn1 [pexidartinib] | 0.77 | 32 | 7 | 54 | 11 | 42 | 6.33 | 0.844 | – | – | – | – | – | – | – | –
CCc1nc(C(N)=O)c(Nc2ccc(N3CCC(N4CCN(C)CC4)CC3)c(OC)c2)nc1NC1CCOCC1 [gilteritinib] | 13 | 26 | 23 | – | 8.52 | 64 | 66 | 6 | – | – | – | 100 | – | – | – | –
CCn1c(=O)c(-c2cc(NC(=O)Nc3ccccc3)c(F)cc2Br)cc2cnc(NC)cc21 [ripretinib] | 0.077 | -5.56 | 2.19 | -11 | -5 | 12 | 101 | 88 | – | – | – | – | – | – | – | –
CN1CCN(c2ccc(C(=O)Nc3n[nH]c4ccc(Cc5cc(F)cc(F)c5)cc34)c(NC3CCOCC3)c2)CC1 [entrectinib] | 19 | 3.63 | 0.699 | 61 | -5.65 | – | 55 | 7.47 | – | – | – | – | – | – | – | –
